Source: patent US20100285145A1, “GPR 119 MODULATORS” (PFIZER INC, priority 2009, published 2010)
Values joined by “and” are separate entries in the source; they are usually repeats but may differ in a detail not shown here. Identical values can stand only once.

The compounds below were run against T1, human GPR119 (Homo sapiens, UniProt Q8TDV5) (assay: GPR119 radioligand binding assay ([3H]-Compound A or B, membranes of HEK 293FT cells expressing hGPR119)). Settings: calculated from IC50 with Cheng-Prusoff; each line a separate determination.
T1 sequence (Q8TDV5 1-335): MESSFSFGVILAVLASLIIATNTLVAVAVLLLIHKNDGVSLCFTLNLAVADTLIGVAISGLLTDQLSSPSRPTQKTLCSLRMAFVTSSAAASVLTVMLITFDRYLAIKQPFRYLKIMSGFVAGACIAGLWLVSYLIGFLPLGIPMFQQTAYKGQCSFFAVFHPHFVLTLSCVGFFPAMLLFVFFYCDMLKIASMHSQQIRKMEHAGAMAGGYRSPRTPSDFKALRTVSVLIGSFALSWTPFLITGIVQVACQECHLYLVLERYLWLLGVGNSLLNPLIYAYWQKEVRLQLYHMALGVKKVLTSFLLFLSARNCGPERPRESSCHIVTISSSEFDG
Set-up: host or cells: HEK293-CRE beta-lactamase
Method: HEK 293FT cells (Invitrogen, Carlsbad, Calif.) were grown in a shake flask in 293Freestyle medium (Invitrogen) supplemented with 50 microg/mL neomycin and 10 mM HEPES (37C, 8% carbon dioxide, shaking). The cells were centrifuged gently (approximately 500×g, 10 minutes) and the pellet resuspended in a mixture of Dulbecco's PBS (minus Mg++/−Ca++) supplemented with 18% fetal bovine serum (Sigma Aldrich) and P1 virus such that the multiplicity of infection (MOI) was 10 and the final cell density was 1.3×10^6/mL (total volume 2.5 liters). The cells were transferred to a 5 liter Wave Bioreactor Wavebag (Wave Technologies, Mass.) and incubated for 4 hours at 27 degrees Celsius (17 rocks/min, 7 degrees platform angle); at the end of the incubation period, an equal volume (2.5 liters) of 293Freestyle medium supplemented with 30 mM sodium butyrate (Sigma Aldrich) was added (final concentration=15 mM), and the cells were grown for 20 hours (37 degrees Celsius, 8% CO2 [0.2 liters/min}, 25 rocks/minute, 7 degrees platform angle). Cells were harvested via centrifugation (3,000×g, 10 minutes), washed once on DPBS (minus Ca++/Mg++), resuspended in 0.25M sucrose, 25 mM HEPES, 0.5 mM EDTA, pH 7.4 and frozen at −80 degrees Celsius.
The frozen cells were thawed on ice and centrifuged at 700×g (1400 rpm) for 10 minutes at 4 degrees Celsius. The cell pellet was resuspended in 20 mL phosphate-buffered saline, and centrifuged at 1400 rpm for 10 minutes. The cell pellet was then resuspended in homogenization buffer (10 mM HEPES (Gibco #15630), pH 7.5, 1 mM EDTA (BioSolutions, #BIO260-15), 1 mM EGTA (Sigma, #E-4378), 0.01 mg/mL benzamidine (Sigma #B 6506), 0.01 mg/mL bacitracin (Sigma #B 0125), 0.005 mg/mL leupeptin (Sigma #L 8511), 0.005 mg/mL aprotinin (Sigma #A 1153)) and incubated on ice for 10 minutes. Cells were then lysed with 15 gentle strokes of a tight-fitting glass Dounce homogenizer. The homogenate was centrifuged at 1000×g (2200 rpm) for 10 minutes at 4 degrees Celsius. The supernatant was transferred into fresh centrifuge tubes on ice. The cell pellet was resuspended in homogenization buffer, and centrifuged again at 1000×g (2200 rpm) for 10 minutes at 4 degrees Celsius after which the supernatant was removed and the pellet resuspended in homogenization buffer. This process was repeated a third time, after which the supernatants were combined, Benzonase (Novagen # 71206) and MgCl2 (Fluka #63020) were added to final concentrations of 1 U/mL and 6 mM, respectively, and incubated on ice for one hour. The solution was then centrifuged at 25,000×g (15000 rpm) for 20 minutes at 4 degrees Celsius, the supernatant was discarded, and the pellet was resuspended in fresh homogenization buffer (minus Benzonase and MgCl2). After repeating the 25,000×g centrifugation step, the final membrane pellet was resuspended in homogenization buffer and frozen at −80 degrees Celsius. The protein concentration was determined using the Pierce BCA protein assay kit (Pierce reagents A #23223 and B #23224).
Test compounds were serially diluted in 100% DMSO (J. T. Baker #922401). 2 microL of each dilution was added to appropriate wells of a 96-well plate (each concentration in triplicate). Unlabeled Compound A (or Compound B), at a final concentration of 10 microM, was used to determine non-specific binding. [^3H]-Compound A (or [^3H]-Compound B) was diluted in binding buffer (50 mM Tris-HCl, pH 7.5, (Sigma #T7443), 10 mM MgCl2 (Fluka 63020), 1 mM EDTA (BioSolutions #BIO260-15), 0.15% bovine serum albumin (Sigma #A7511), 0.01 mg/mL benzamidine (Sigma #B 6506), 0.01 mg/mL bacitracin (Sigma #B 0125), 0.005 mg/mL leupeptin (Sigma #L 8511), 0.005 mg/mL aprotinin (Sigma #A 1153)) to a concentration of 60 nM, and 100 microL added to all wells of 96-well plate (Nalge Nunc # 267245). […]

| Ki | Compound |
| --- | --- |
| 39 nM and 34.7 nM | Cc1c(O[C@H]2[C@@H]3COC[C@H]2CN(C(=O)OC2(C)CC2)C3)ncnc1N1CCc2ncccc21 [Example 25, 1-Methylcyclopropyl (9-anti)-9-{[6-(2,3-dihydro-1H-pyrrolo[3,2-b]pyridin-1-yl)-5-methylpyrimidin-4-yl]oxy}-3-oxa-7-azabicyclo[3.3.1]nonane-7-carboxylate] |
| 55.3 nM and 16 nM and 91.1 nM and 23.8 nM | Cc1c(OC2CCN(C(=O)OC(C)C)CC2)ncnc1N1CCc2ncccc21 [Example 13, Isopropyl 4-{[6-(2,3-dihydro-1H-pyrrolo[3,2-b]pyridin-1-yl)-5-methylpyrimidin-4-yl]oxy}-piperidine-1-carboxylate] |
| 20.8 nM and 13.8 nM | Cc1c(O[C@H]2[C@@H]3COC[C@H]2CN(C(=O)OC2(C)CCC2)C3)ncnc1N1CCc2ncccc21 [Example 27, 1-Methylcyclobutyl (9-anti)-9-{[6-(2,3-dihydro-1H-pyrrolo[3,2-b]pyridin-1-yl)-5-methylpyrimidin-4-yl]oxy}-3-oxa-7-azabicyclo[3.3.1]nonane-7-carboxylate] |
| 66.6 nM and 79.3 nM and 53 nM and 96.4 nM | Cc1c(O[C@H]2[C@@H]3COC[C@H]2CN(C(=O)OC(C)C)C3)ncnc1N1CCc2ncccc21 [Example 22, Isopropyl (9-anti)-9-{[6-(2,3-dihydro-1H-pyrrolo[3,2-b]pyridin-1-yl)-5-methylpyrimidin-4-yl]oxy}-3-oxa-7-azabicyclo[3.3.1]nonane-7-carboxylate] |
| 40.5 nM and 22.2 nM | CCC1(OC(=O)N2C[C@H]3COC[C@@H](C2)[C@H]3Oc2ncnc(N3CCc4ncccc43)c2C)CC1 [Example 26, 1-Ethylcyclopropyl (9-anti)-9-{[6-(2,3-dihydro-1H-pyrrolo-[3,2-b]pyridin-1-yl)-5-methylpyrimidin-4-yl]oxy}-3-oxa-7-azabicyclo[3.3.1]nonane-7-carboxylate] |
| 1.48 nM and 2.12 nM | Cc1c(O[C@H]2CCN(C(=O)OC(C)(C)C)C[C@H]2F)ncnc1N1CCc2ncccc21 (racemic) [Example 16, tert-Butyl (3R,4S)-4-{[6-(2,3-dihydro-1H-pyrrolo[3,2-b]pyridin-1-yl)-5-methylpyrimidin-4-yl]oxy}-3-fluoropiperidine-1-carboxylate (racemic)] |
| 1.72 nM and 6.77 nM and 1.6 nM | CC(C)(C)OC(=O)N1CCC(Oc2cc(N3CCc4cc(S(C)(=O)=O)ccc43)ncn2)C(F)C1 (racemic) [Example 15, tert-Butyl 3-fluoro-4-({6-[5-(methylsulfonyl)-2,3-dihydro-1H-indol-1-yl]pyrimidin-4-yl}oxy)piperidine-1-carboxylate] |
| 2 nM and 5.04 nM and 2.43 nM and 4.23 nM and 1.7 nM and 5.67 nM and 13.8 nM and 11.9 nM and 2.45 nM and 6.9 nM | Cc1c(O[C@H]2CCN(C(=O)OC3(C)CC3)C[C@H]2F)ncnc1N1CCc2ncccc21 [Example 17, 1-Methylcyclopropyl (3R,4S)-4-{[6-(2,3-dihydro-1H-pyrrolo[3,2-b]pyridin-1-yl)-5-methylpyrimidin-4-yl]oxy}-3-fluoropiperidine-1-carboxylate] |
| 73.8 nM | Cc1c(O[C@@H]2[C@@H]3COC[C@H]2CN(C(=O)OC(C)C)C3)ncnc1N1CCc2ncccc21 [Example 29, Isopropyl (9-syn)-9-{[6-(2,3-dihydro-1H-pyrrolo[3,2-b]pyridin-1-yl)-5-methylpyrimidin-4-yl]oxy}-3-oxa-7-azabicyclo[3.3.1]nonane-7-carboxylate] |

Second part, the compound before the results:

| Compound | Ki |
| --- | --- |
| CC(C)OC(=O)N1CCC(Oc2ncnc(N3CCc4cc(S(C)(=O)=O)ccc43)c2C#N)CC1 [Example 6, Isopropyl 4-({5-cyano-6-[5-(methylsulfonyl)-2,3-dihydro-1H-indol-1-yl]pyrimidin-4-yl}oxy)piperidine-1-carboxylate] | 1.87 nM and 5.02 nM |
| CC(C)OC(=O)N1CCC(Oc2cc(N3CCc4cc(C#N)ccc43)ncn2)CC1 [Example 10, Isopropyl 4-{[6-(5-cyano-2,3-dihydro-1H-indol-1-yl)pyrimidin-4-yl]oxy}piperidine-1-carboxylate] | 232 nM |
| CC(C)OC(=O)N1CCC(Oc2cc(N3CCc4ncccc43)ncn2)CC1 [Example 12, Isopropyl 4-{[6-(2,3-dihydro-1H-pyrrolo[3,2-b]pyridin-1-yl)pyrimidin-4-yl]oxy}piperidine-1-carboxylate] | 6100 nM and 1350 nM and 2910 nM |
| CC(C)OC(=O)N1C[C@H]2COC[C@@H](C1)[C@H]2Oc1cc(N2CCc3cc(S(C)(=O)=O)ccc32)ncn1 [Example 1, Isopropyl 9-anti-({6-[5-(methylsulfonyl)-2,3-dihydro-1H-indol-1-yl]pyrimidin-4-yl}oxy)-3-oxa-7-azabicyclo[3.3.1]nonane-7-carboxylate] | 219 nM and 35.5 nM |
| CC(C)OC(=O)N1CCC(Oc2cc(N3CCc4cc(S(=O)(=O)CCO)ccc43)ncn2)CC1 [Example 11, Isopropyl 4-[(6-{5-[(2-hydroxyethyl)sulfonyl]-2,3-dihydro-1H-indol-1-yl}pyrimidin-4-yl)oxy]piperidine-1-carboxylate] | 72.8 nM |
| CC(C)OC(=O)N1CCC(Oc2cc(N3CCc4cc(C(=O)N(C)C)ccc43)ncn2)CC1 [Example 9, 4-[6-(5-Dimethylcarbamoyl-2,3-dihydroindol-1-yl)-pyrimidin-4-yloxy]-piperidine-1-carboxylic acid isopropyl ester] | 58.8 nM and 45.2 nM |
| Cc1c(OC2CCN(C(=O)OC(C)C)CC2)ncnc1N1CCc2cc(S(C)(=O)=O)ccc21 [Example 8, Isopropyl 4-({5-methyl-6-[5-(methylsulfonyl)-2,3-dihydro-1H-indol-1-yl]pyrimidin-4-yl}oxy)piperidine-1-carboxylate] | 273 nM and 338 nM |
